Molecular target: T1, CAMKII gamma (Homo sapiens, UniProt Q13555)
T1 construct: purchased Promega V3531
Experiment: CAMKII gamma kinase activity, ADP Glo (Promega)
Type: biochemical
Conditions: 10 uM ATP
Method: An enzymatic study was conducted to evaluate the inhibition of CAMKII gamma by ES-3000 (Tetrandrine). CAMKII gamma kinase activity was measured using […] purchased from Promega following the Promega protocol. CAMKII enzyme system purchased from Promega (V3531). ADP Glo was used for detection. Assay optimized for linearity of protein and time. Conditions for inhibitor screening 25 ng CAMKII, 20 min. incubations, inhibitor or DMSO (5%) at RT in 20 uL total volume. Inhibitor, ATP (10 or 50 uM), substrates and buffer added to tubes and reactions started with enzyme. […] Reactions terminated at 20 min. by adding ADP Glo reaction following manufactures instructions. All reactions were done in duplicate. Calculations of percent (%) inhibition determined by dividing the mean activity at each condition by the mean of the DMSO control times 100.

T1 sequence (Q13555 whole entry): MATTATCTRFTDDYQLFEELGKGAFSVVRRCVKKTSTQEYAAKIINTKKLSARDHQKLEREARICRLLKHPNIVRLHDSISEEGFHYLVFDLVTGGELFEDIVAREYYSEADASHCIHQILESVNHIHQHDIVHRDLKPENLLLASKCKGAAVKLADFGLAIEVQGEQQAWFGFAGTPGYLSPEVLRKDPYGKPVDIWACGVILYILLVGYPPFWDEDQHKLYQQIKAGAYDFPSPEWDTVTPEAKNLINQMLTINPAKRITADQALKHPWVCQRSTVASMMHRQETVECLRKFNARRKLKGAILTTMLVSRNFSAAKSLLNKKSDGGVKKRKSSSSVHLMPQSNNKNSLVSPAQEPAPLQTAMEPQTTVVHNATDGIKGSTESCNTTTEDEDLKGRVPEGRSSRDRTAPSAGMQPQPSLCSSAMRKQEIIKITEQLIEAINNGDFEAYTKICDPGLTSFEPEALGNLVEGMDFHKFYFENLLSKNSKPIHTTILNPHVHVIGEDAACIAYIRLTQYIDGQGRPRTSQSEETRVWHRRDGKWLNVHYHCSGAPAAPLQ

## COc1cc2c3cc1Oc1c(OC)c(OC)cc4c1[C@@H](Cc1ccc(O)c(c1)Oc1ccc(cc1)C[C@@H]3N(C)CC2)N(C)CC4 [berbamine, reference compound]
30 uM
  % inhibition: 37%
  inhibition at 30 µM: 36.7%
  kinase activity, % of DMSO control: 63%
100 uM
  % inhibition: 47%
  inhibition at 100 µM: 47.1%
  kinase activity, % of DMSO control: 53%
250 uM
  % inhibition: 46%
  inhibition at 250 µM: 46.3%
  kinase activity, % of DMSO control: 54%

From patent US20240307372A1, “COMPOSITIONS AND METHODS TO IMPROVE BENEFIT OF SUBOPTIMALLY ADMINISTERED THERAPEUCTICS FOR THE TREATMENT OF BENIGN AND NEOPLASTIC DISEASES, INFECTIONS, INFLAMMATORY, METABOLIC AND IMMUNOLOGIAL DISEASES” (priority 2023, published 2024)
